A word on the IC50: it is the concentration that inhibits the measured activity by half.

One assay deals with coxsackie B1 virus. The experiment in a line: Antiviral CPE assay in mammalian cell culture. Type of assay: cell-based. As to conditions: read-out: inhibition capacity (IC50) Bl.
The next assay relates to Enterovirus 6. The experiment in a line: Antiviral CPE assay in mammalian cell culture. Format: cell-based. The following applies: prevention of viral CPE, read-out: inhibition capacity (IC50) EV6.
The target of a further assay is PI3Kα (Homo sapiens, UniProt P42336). The experiment in a line: Phosphatidyl inositol kinase inhibition assay (HTRF). Type of assay: biochemical. An excerpt: (§1) Phosphatidyl Inositol Kinase Inhibition Assay
Sequence of PI3Kα (P42336 whole entry, species assumed): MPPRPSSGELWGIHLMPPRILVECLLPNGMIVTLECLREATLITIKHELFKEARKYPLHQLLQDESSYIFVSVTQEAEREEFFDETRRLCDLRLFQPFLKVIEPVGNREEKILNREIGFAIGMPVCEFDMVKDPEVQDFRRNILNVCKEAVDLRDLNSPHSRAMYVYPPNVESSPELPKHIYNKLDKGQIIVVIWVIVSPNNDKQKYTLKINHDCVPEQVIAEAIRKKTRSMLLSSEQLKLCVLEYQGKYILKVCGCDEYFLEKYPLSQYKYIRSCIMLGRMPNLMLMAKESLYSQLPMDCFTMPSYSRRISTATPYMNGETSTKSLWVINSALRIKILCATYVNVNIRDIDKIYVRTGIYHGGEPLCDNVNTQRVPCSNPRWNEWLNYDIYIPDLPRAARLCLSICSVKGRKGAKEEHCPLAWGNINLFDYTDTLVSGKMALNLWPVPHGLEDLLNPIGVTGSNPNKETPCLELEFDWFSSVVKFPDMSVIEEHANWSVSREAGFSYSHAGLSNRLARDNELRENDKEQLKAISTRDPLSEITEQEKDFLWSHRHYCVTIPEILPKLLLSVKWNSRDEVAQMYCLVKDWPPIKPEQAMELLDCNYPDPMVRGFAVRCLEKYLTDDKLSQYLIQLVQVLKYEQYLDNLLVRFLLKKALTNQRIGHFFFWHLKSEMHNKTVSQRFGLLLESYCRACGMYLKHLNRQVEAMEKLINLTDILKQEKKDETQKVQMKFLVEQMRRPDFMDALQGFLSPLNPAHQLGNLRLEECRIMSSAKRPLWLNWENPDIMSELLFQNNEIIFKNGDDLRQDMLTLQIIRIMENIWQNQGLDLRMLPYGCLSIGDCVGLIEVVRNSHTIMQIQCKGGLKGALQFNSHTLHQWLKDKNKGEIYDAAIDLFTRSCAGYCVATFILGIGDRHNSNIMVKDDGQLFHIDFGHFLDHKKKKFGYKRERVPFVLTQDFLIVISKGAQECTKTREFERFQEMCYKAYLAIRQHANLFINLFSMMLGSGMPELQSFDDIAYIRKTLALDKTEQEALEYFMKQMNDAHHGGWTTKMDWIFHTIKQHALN
Sequence of PI3Kα (P27986 whole entry partner, species assumed): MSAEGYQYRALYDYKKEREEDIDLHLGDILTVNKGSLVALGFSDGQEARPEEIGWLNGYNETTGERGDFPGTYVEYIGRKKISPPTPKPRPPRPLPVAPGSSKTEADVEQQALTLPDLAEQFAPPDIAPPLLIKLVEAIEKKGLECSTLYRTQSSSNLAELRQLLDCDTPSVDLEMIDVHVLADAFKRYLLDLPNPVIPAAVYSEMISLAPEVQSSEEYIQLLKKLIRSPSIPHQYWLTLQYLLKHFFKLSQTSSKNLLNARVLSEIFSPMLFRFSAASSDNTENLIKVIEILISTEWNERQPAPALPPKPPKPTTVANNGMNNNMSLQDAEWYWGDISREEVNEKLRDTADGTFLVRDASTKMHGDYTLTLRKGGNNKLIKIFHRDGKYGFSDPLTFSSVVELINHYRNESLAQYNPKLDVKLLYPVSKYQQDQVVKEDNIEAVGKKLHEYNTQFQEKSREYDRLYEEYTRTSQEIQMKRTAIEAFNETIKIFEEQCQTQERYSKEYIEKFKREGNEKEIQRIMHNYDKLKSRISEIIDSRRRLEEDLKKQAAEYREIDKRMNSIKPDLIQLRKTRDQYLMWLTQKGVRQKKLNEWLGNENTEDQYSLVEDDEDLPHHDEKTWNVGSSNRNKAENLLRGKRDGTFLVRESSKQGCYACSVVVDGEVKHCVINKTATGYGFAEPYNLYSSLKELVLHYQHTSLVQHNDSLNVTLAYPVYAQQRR
(§2) Inhibition of PI3 kinases was studied using the HTRF (homogeneous time-resolved fluorescence) assay which is a universal method for identifying and characterizing the phosphotransferase activity induced by any ATP/ADP dependent target. The formation of ADP is detected by a specific monoclonal antibody labeled with Eu^3+ cryptate, and directly correlates with the amount of phosphorylated substrate in kinase assays
A general note: Time-resolved FRET reads energy transfer from a long-lived donor to a nearby acceptor.

The target of a further assay is PI3Kβ (Homo sapiens, UniProt P42338). The description is as above. Format: biochemical.
Sequence of PI3Kβ (P42338 whole entry, species assumed): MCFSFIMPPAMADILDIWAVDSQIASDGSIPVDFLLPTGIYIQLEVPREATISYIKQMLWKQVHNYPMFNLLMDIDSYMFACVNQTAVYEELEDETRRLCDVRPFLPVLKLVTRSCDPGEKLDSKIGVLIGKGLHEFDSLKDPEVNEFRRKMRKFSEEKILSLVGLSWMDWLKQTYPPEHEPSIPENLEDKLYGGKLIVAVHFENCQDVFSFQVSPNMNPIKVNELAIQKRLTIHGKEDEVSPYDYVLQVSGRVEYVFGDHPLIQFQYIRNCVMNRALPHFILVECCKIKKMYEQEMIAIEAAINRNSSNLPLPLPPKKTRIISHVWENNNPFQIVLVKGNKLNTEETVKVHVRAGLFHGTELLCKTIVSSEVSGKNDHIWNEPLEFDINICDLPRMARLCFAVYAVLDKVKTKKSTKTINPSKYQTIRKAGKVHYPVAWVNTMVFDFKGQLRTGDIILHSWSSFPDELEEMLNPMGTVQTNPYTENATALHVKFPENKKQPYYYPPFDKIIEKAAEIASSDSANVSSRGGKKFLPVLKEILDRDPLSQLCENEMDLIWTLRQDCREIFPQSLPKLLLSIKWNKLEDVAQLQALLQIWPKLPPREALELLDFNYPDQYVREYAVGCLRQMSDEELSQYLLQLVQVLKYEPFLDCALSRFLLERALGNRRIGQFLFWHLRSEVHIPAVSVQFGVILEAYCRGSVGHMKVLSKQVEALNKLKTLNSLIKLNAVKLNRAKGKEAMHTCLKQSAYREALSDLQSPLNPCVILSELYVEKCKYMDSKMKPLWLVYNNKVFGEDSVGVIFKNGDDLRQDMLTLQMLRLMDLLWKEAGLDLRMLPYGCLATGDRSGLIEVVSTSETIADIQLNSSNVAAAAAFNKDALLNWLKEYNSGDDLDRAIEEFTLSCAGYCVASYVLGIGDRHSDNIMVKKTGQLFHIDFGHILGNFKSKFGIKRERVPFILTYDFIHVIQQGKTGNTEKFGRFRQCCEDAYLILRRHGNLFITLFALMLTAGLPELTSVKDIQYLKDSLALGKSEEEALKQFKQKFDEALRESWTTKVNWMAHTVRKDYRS
Sequence of PI3Kβ (P27986 whole entry partner, species assumed): as the sequence (P27986 whole entry partner, species assumed) above
Text: as §1, §2

The test system of a further assay is coxsackie B5virus. The experiment in a line: Antiviral CPE assay in mammalian cell culture. Format: cell-based. The following applies: read-out: inhibition capacity (IC50) B5.
The test system of another assay is coxsackie B2 virus. The experiment in a line: Antiviral CPE assay in mammalian cell culture. As to conditions: read-out: inhibition capacity (IC50) B2. Type of assay: cell-based.
A further assay relates to Enterovirus 71. The experiment in a line: Antiviral CPE assay in mammalian cell culture. Format: cell-based. The following applies: Enterovirus A, EV71, prevention of viral CPE, read-out: inhibition capacity (IC50) EV71.
For the next assay, the system named is coxsackie B 4 virus. The experiment in a line: Antiviral CPE assay in mammalian cell culture. Type of assay: cell-based. As to conditions: Enterovirus B, B4, read-out: inhibition capacity (IC50) B4.
The next assay deals with PI4KIIIβ (Homo sapiens, UniProt Q9UBF8). The experiment in a line: Phosphatidyl inositol kinase inhibition assay (ADP-Glo Kinase Assay). Format: biochemical. As to the method: (§3) Phosphatidyl Inositol Kinase Inhibition Assay Inhibition of PI4 kinases was studied using the ADP-Glo™ Kinase Assay which is a luminescent kinase assay that measures ADP formed from a kinase reaction; ADP is converted into ATP, which is converted into light by Ultra-Glo™ Luciferase. The assay is performed in two steps; first, after the kinase reaction, an equal volume of ADP-Glo™ Reagent is added to terminate the kinase reaction and deplete the remaining ATP. In the second step, the Kinase Detection Reagent is added, which simultaneously converts ADP to ATP and allows the newly synthesized ATP to be measured using a coupled luciferase/luciferin reaction. The luminescent signal produced is proportional to the activity of the kinase.
Sequence of PI4KIIIβ (Q9UBF8 whole entry): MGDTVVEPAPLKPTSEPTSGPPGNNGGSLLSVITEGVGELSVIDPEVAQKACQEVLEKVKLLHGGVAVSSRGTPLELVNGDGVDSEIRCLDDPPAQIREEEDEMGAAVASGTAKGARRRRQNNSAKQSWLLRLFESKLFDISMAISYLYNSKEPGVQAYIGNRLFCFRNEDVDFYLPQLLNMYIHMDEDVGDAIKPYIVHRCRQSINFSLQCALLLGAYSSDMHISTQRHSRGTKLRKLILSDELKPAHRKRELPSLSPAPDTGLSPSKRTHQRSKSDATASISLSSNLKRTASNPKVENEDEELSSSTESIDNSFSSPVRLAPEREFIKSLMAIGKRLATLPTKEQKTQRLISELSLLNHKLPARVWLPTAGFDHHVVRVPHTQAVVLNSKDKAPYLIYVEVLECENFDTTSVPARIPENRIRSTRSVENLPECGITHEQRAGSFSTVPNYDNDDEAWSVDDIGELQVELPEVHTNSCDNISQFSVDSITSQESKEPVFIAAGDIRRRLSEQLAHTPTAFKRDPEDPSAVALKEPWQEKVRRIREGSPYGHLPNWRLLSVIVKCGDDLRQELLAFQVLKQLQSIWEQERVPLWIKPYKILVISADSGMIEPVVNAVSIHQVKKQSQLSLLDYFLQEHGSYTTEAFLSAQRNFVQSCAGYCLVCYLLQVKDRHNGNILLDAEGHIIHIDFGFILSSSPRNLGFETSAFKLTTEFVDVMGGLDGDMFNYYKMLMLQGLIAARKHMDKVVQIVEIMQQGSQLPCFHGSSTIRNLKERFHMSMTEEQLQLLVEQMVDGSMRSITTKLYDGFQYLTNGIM
On the technique in general: In ADP-Glo the light output rises with the ADP produced.

In the next assay the target is PI4KIIIα (Homo sapiens, UniProt P42356). Described as above. Type of assay: biochemical. How it is done: as §3
In another assay the test system is Enterovirus 68. The experiment in a line: Antiviral CPE assay in mammalian cell culture. Format: cell-based. As to conditions: Enterovirus D, EV68, read-out: inhibition capacity (IC50) EV68.
For another assay, the system named is polio virus Sabin 1. The experiment in a line: organism not typed. Format: cell-based. As to conditions: read-out: inhibition capacity (IC50) Polio 1.
Another assay concerns Enterovirus 30. The experiment in a line: Antiviral CPE assay in mammalian cell culture. Format: cell-based. As to conditions: Enterovirus, read-out: inhibition capacity (IC50) EV30.
In the next assay the test system is coxsackie B3 virus. The experiment in a line: Antiviral CPE assay in mammalian cell culture. Format: cell-based. As to conditions: Enterovirus B, B3, read-out: inhibition capacity (IC50) B3.

`COc1ccc(-c2c(C)nn3c(NCc4ccncc4)nc(C)nc23)cc1OC` [Example 6, 8-(3,4-dimethoxyphenyl)-2,7-dimethyl-N-(4-pyridylmethyl)pyrazolo[1,5-a][1,3,5]triazin-4-amine]: the IC50 with coxsackie B1 virus was less than 0.01 µM; in the assay with Enterovirus 6, less than 0.01 µM; against PI3Kα it was 7.3 µM; against PI3Kβ, more than 10 µM; in the assay on coxsackie B5virus, less than 0.01 µM; in the assay on coxsackie B2 virus, less than 0.01 µM. For the same compound, the IC50 is less than 0.01 µM in the assay with Enterovirus 71; less than 0.01 µM in the assay with coxsackie B 4 virus; 0.0013 µM on PI4KIIIβ; 3.2 µM at PI4KIIIα; less than 0.01 µM in the assay with Enterovirus 68; less than 0.01 µM in the assay with polio virus Sabin 1. Besides, the concentration for half-maximal inhibition (IC50) with Enterovirus 30 was less than 0.1 µM; in the assay on coxsackie B3 virus, less than 0.01 µM.
For `COc1ccc(-c2c(C)nn3c(NCc4ccc(S(N)(=O)=O)cc4)nc(C)nc23)cc1OC` [Example 14, 4-[[[8-(3,4-dimethoxyphenyl)-2,7-dimethyl-pyrazolo[1,5-a][1,3,5]triazin-4-yl]amino]methyl]benzenesulfonamide], the IC50 in the assay with coxsackie B1 virus was less than 0.1 µM; against PI3Kα, more than 10 µM; against PI3Kβ it was more than 10 µM; with coxsackie B5virus it was less than 0.01 µM; with coxsackie B2 virus, less than 0.1 µM; in the assay on Enterovirus 71 it was less than 0.01 µM. The IC50 with coxsackie B 4 virus is less than 0.1 µM; at PI4KIIIβ, 0.0021 µM; against PI4KIIIα, 1.3 µM; with Enterovirus 68, less than 0.01 µM; in the assay with polio virus Sabin 1, less than 0.01 µM; in the assay with Enterovirus 30, less than 0.01 µM. Besides, in the assay with coxsackie B3 virus, the IC50 is less than 0.1 µM.
`COc1ccc(-c2c(C)nn3c(NCc4ccc(NS(C)(=O)=O)cc4)nc(C)nc23)cc1OC` [Example 19, N-[4-[[[8-(3,4-dimethoxyphenyl)-2,7-dimethyl-pyrazolo[1,5-a][1,3,5]triazin-4-yl]amino]methyl]phenyl]methanesulfonamide]: the IC50 with coxsackie B1 virus is less than 0.1 µM; in the assay with Enterovirus 6 it was less than 1 µM; with coxsackie B5virus it was less than 1 µM; with coxsackie B2 virus, less than 0.1 µM; with Enterovirus 71, less than 0.01 µM; in the assay on coxsackie B 4 virus, less than 0.01 µM. The half-maximal inhibitory concentration (IC50) with Enterovirus 68, in the assay on polio virus Sabin 1, in the assay with Enterovirus 30 and in the assay with coxsackie B3 virus was less than 0.1 µM each time.
Take `COc1ccc(-c2c(C)nn3c(NCc4cnc(C)nc4)nc(C)nc23)cc1OC` [Example 30, 8-(3,4-dimethoxyphenyl)-2,7-dimethyl-N-[(2-methylpyrimidin-5-yl)methyl]pyrazolo[1,5-a][1,3,5]triazin-4-amine]: the IC50 with coxsackie B1 virus was less than 1 µM; in the assay with Enterovirus 6, less than 1 µM; in the assay on coxsackie B5virus, less than 1 µM; in the assay with coxsackie B2 virus, less than 1 µM; in the assay with Enterovirus 71, less than 0.1 µM; in the assay with coxsackie B 4 virus, less than 0.1 µM. The IC50 in the assay with Enterovirus 68 is less than 0.1 µM; in the assay with polio virus Sabin 1 it was less than 0.1 µM; with Enterovirus 30, less than 0.1 µM; with coxsackie B3 virus, less than 1 µM.

For the origin of these results see patent US10407429B2, “Pyrazolo[1,5-a]triazin-4-amine derivatives useful in therapy” (Curovir AB, priority 2015, dated 2019).
